Data on 1 compound can be found in patent US20260060982A1, “USE OF BTK INHIBITOR AND SINGLE-DOSE DRUG” (HUBEI BIO-PHARMACEUTICAL INDUSTRIAL TECHNOLOGICAL INSTITUTE …, priority 2023, published 2026).

The nature of data set [1]: Phase I single-dose clinical trial, pharmacokinetics. Particulars: human, plasma, oral, single administration, 10 mg to 800 mg. The class given is in vivo. The source says:
In this example, 96 healthy Chinese aged 18 to 45 were recruited as subjects. The trial included 8 dose groups, each with 12 subjects, who were randomly divided into groups, 10 of whom received compound (I) capsules (i.e., the trial group) and 2 received placebo capsules (containing no compound (I), i.e., the control group or placebo group). […] The dosages involved in this example were all the amount of compound (I). Based on safety and exploration factors, the human MRSD (maximum recommended starting dose) of compound (I) capsule used in the example was set at 10 mg, and the human maximum recommended dose was set at 800 mg. A total of 8 dose groups were set up between the initial dose and the maximum dose (see Table 2 for the dose escalation scheme of the clinical trial): 10 mg, 25 mg, 50 mg, 100 mg, 200 mg, 400 mg, 600 mg, and 800 mg, and single administration safety and tolerability trials were conducted group by group.
The subjects fasted for 10 h before administration and took a single oral administration of compound (I) capsule or placebo capsule at the prescribed dose on the morning of the trial day. Water was prohibited within 2 h after the administration and food was prohibited within 4 h after the administration. Blood sample collection: 3.0 ml of venous blood was collected before administration (within 45 min) and at 10 min, 20 min, 0.5 h, 1 h, 1.5 h, 1.75 h, 2 h, 2.5 h, 3 h, 3.5 h, 4 h, 6 h, 8 h, 12 h, 16 h, 24 h, 36 h, 48 h, and 72 h after administration. Urine sample collection: Urine samples were collected before administration (within 2 h) and at 0-2 h, 2-4 h, 4-8 h, 8-12 h, 12-16 h, 16-24 h, 24-48 h, and 48-72 h after administration. Feces collection: Feces were collected before administration (within 3 days) and at 0-24 h, 24-48 h, and 48-72 h after administration.
The analysis was performed using the Per-protocol set. The time-dependent plasma concentration data of compound (I) capsules were processed using WinNonlin version 6.4. The main pharmacokinetic parameters of each subject were calculated using a non-compartmental model, and the linear relationship between dose and Cmax and AUC0-t was analyzed using a power function model.

A further data set concerns the target BTK (Homo sapiens, UniProt Q06187). Briefly: BTK target occupancy in peripheral blood mononuclear cells (ELISA), Phase I single-dose trial. The class given is in vivo. The arrangement: endogenous in cells; host or cells: human peripheral blood mononuclear cells (PBMCs) of trial subjects, lysate. As for the experimental part: The receptor occupancy of compound (I) in human peripheral blood mononuclear cell lysate was detected by ELISA. The analysis method was to perform relative quantitative determination of BTK in human peripheral blood mononuclear cells (PBMCs) using ELISA.
PBMC lysate containing BTK was incubated with compound (I), with a control containing no compound (I), then incubated with biotinlated compound (I), and then added to a well plate pre-coated with streptavidin. When compound (I) was incubated with PBMC lysate, it was bound to BTK, thereby preventing BTK from binding to biotinylated compound (I). Since the complex cannot bind to the well plate, it was difficult to generate a response signal.
Rabbit anti-BTK primary antibody incubated with the above samples would bind to BTK. Tetramethylbenzidine (TMB) was the substrate of HRP coupled to the anti-rabbit secondary antibody. […] After color development, the absorbance was measured at a wavelength of 450 nm. […] The content of free BTK was proportional to the absorbance. In this way, the content of BTK can be indirectly detected. […]
The analysis was performed using the Per-protocol set. The differences in BTK target occupancy rate among the different dose groups was analyzed using the Chi-Square test; and the relationship between dose, plasma concentration, and BTK target occupancy rate was analyzed using Logistic Regression.

Chain of BTK (Q06187 whole entry): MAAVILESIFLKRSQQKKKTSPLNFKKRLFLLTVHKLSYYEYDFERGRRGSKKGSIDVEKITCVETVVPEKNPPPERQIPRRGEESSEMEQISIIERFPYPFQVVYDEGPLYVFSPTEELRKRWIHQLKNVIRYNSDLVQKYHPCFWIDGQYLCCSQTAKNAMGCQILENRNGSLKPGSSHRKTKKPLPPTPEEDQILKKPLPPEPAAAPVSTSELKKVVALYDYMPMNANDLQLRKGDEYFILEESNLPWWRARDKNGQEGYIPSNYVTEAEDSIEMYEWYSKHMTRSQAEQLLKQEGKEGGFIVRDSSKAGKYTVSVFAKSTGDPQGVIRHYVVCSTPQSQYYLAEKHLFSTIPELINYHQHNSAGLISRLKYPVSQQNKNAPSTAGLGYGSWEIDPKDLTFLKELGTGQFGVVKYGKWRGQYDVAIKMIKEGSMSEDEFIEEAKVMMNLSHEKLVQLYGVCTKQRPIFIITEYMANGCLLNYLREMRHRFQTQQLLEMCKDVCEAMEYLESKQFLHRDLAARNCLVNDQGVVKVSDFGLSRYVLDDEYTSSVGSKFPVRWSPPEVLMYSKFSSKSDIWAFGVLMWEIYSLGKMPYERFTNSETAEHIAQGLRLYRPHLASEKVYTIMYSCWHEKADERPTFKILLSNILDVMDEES

A word on the Cmax: it is the peak of the concentration-time curve. As a reminder, the MRT is a mean duration of stay, worked out from the concentration-time curve. As usually defined, the Tmax is the time from dosing to the highest level. With `C=CC(=O)N1CCC[C@@H](n2nc(-c3ccc(Oc4ccccn4)cc3)c3c(N)n[nH]c(=O)c32)C1` [compound (I), (R)-1-(1-acryloylpiperidin-3-yl)-4-amino-3-(4-(pyridin-2-yloxy)phenyl)-1H-pyrazolo[3,4-d]pyridazin-7(6H)-one], in data set [1] (read-out: Cmax, range over dose groups), the Cmax is 46.1 to 5060 ng/mL. In addition, the MRT in data set [1] (read-out: MRT, range over dose groups) fell in the range of 1.53 to 4.25 h. Besides, the half-life in data set [1] (read-out: T1/2, range over dose groups) lay within 0.847 to 8.67 h. In data set [1] (read-out: Tmax, range over dose groups), the Tmax was in the range of 1.03 to 2 h. Besides, the results for the “maximum BTK target occupancy rate” value on BTK (single administration of 10 mg) and on BTK (single administration of 25 mg or above) were 58.93% and around 100%, respectively.
